Test results published in patent US9233965B2, “3,4-dihydropyrrolo[1,2-A]pyrazine-2,8(1H)-dicarboxamide derivatives, preparation thereof and therapeutic use thereof for diseases involving casein kinase 1 epsilon and/or casein kinase 1 delta” (SANOFI, priority 2010, dated 2016).
Values joined by “and” are separate entries in the source; they are usually repeats but may differ in a detail not shown here. Equal values may be shown once.

Key:
[1] = target: casein kinase 1 epsilon (CK1 epsilon) (Homo sapiens (Human), UniProt P49674); assay: Test A: inhibitory activity on CK1 epsilon, casein phosphorylation assay on ATP-33P filter plate; assay type: biochemical; conditions: IC50 values or IC50 ranges (result of several experiments), ATP 10 μM final
Outline: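 Human CK1 epsilon (3 ng/μL final) phosphorylates dephosphorylated casein (0.2 μg/μL) with ATP-33P plus 10 μM cold ATP (KM for ATP 21 μM), 2 h at room temperature, pH 7.5 Tris buffer. TCA-precipitated protein counted by scintillation; compounds at 10 to 0.001 μM give IC50 values or % inhibition at 10 μM.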

[2] = tested on: Mper1-luc Rat-1 (P2C4) fibroblasts; assay: Test C: circadian cell assay, mPer1-luciferase reporter period analysis; assay type: cell-based; conditions: effective concentration that induces a 1-hour prolongation of the circadian period; values or ranges from several experiments
Protocol: Test C: Experimental Protocol for Circadian Cell Assay
Mper1-luc Rat-1 (P2C4) fibroblast cultures were prepared by dividing the cultures every 3-4 days (about 10-20% of confluence) on 150 cm^2 degassed polystyrene tissue culture flasks (Falcon® #35-5001) and maintained in growth medium [EMEM (Cellgro #10-010-CV); 10% foetal bovine serum (FBS; Gibco #16000-044); and 50 I.U./mL of penicillin-streptomycin (Cellgro #30-001-Cl)] at 37° C. and under 5% CO2.
Cells obtained from Rat-1 fibroblast cultures at 30-50% of confluence as described above were co-transfected with vectors containing the selection marker for resistance to zeocin for a stable transfection and a luciferase reporter gene directed by the promoter mPer-1. After 24 to 48 hours, the cultures were divided on 96-well plates and maintained in growth medium supplemented with 50-100 μg/mL of zeocin (Invitrogen® #45-0430) for 10-14 days. The zeocin-resistant stable transfectants were evaluated for expression of the reporter by adding to the growth medium luciferin 100 μM (Promega® #E1603®) and by assaying the luciferase activity on a TopCount® scintillation counter (Packard model #C384V00). The Rat-1 cell clones expressing both zeocin resistance and luciferase activity directed by mPer1 were serum-shock-synchronized with 50% horse serum [HS (Gibco® #16050-122)] and the activity of the circadian reporter was evaluated. The P2C4 clone of fibroblasts Mper1-luc Rat-1 was selected to test the compound.
The Mper1-luc Rat-1 (P2C4) fibroblasts at 40-50% of confluence obtained according to the protocol described above were plated out onto 96-well opaque tissue culture plates (Perkin Elmer® #6005680). The cultures are maintained in growth medium supplemented with 100 μg/mL of zeocin (Invitrogen #45-0430) until they reached 100% of confluence (48-72 hours). The cultures were then synchronized with 100 μL of synchronization medium [EMEM (Cellgro #10-010-CV); 100 I.U./mL of penicillin-streptomycin (Cellgro #30-001-C1); 50% HS (Gibco #16050-122)] for 2 hours at 37° C. and under 5% CO2. After synchronization, the cultures were rinsed with 100 μL of EMEM (Cellgro #10-010-CV) for 10 minutes at room temperature. […]
The period analysis was performed either by determining the interval between the relative light emission minima over several days or by Fourier transform. […] The data were analysed by adjusting a hyperbolic curve to the data expressed as change of period (y-axis) as a function of the concentration of the test compound (x-axis) in the XLfit™ software and the EC Delta (t+1 h) was interpolated from this curve. […]

casein kinase 1 epsilon (CK1 epsilon), sequence (P49674 whole entry): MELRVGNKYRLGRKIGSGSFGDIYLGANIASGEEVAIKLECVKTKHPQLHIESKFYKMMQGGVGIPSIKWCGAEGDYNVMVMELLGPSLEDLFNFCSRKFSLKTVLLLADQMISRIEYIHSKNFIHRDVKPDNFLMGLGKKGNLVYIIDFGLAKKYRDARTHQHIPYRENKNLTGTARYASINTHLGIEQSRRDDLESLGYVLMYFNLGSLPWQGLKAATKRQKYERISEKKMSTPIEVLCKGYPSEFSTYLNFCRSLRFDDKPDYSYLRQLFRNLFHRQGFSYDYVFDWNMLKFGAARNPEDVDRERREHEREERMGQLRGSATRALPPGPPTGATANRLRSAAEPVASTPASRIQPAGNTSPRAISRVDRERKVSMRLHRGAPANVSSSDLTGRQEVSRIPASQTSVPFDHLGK

SMILES	IC50 [1] [nM]	melting point	CE Delta (t + 1 h) [2] [nM]
Cc1c(-c2ccccc2)c(C(N)=O)c2n1CCN(C(=O)NC(C)(C)C)C2 [Compound 3, N^2-tert-butyl-6-methyl-7-phenyl-3,4-dihydropyrrolo[1,2-a]pyrazine-2,8(1H)-dicarboxamide]	5 to 104		8
CC(C)(C)NC(=O)N1CCn2c(c(C(N)=O)c(-c3ccc4ccccc4c3)c2C2CC2)C1 [Compound 25, N^2-tert-butyl-6-cyclo-propyl-7-(naphthalen-2-yl)-3,4-dihydropyrrolo[1,2-a]pyrazine-2,8(1H)-dicarboxamide]	33		26
NC(=O)c1c(-c2ccccc2)c(C2CC2)n2c1CN(C(=O)NC13CC4CC(CC(C4)C1)C3)CC2 [Compound 54, N^2-(adamantan-1-yl)-6-cyclo-propyl-7-phenyl-3,4-dihydropyrrolo[1,2-a]pyrazine-2,8(1H)-dicarboxamide]	6		15
CC(C)(C)NC(=O)N1CCn2c(Cl)c(-c3ccccc3)c(C(N)=O)c2C1 [Compound 60, N^2-tert-butyl-6-chloro-7-phenyl-3,4-dihydropyrrolo[1,2-a]pyrazine-2,8(1H)-dicarboxamide]	1 to 12	197 to 199 °C and 192 to 195 °C	3 to 20
NC(=O)c1c(-c2ccccc2)c(Cl)n2c1CN(C(=O)NC1CCOC1)CC2 (stereo not drawn) [Compound 92, 6-chloro-7-phenyl-N^2-(tetrahydrofuran-3-yl)-3,4-dihydropyrrolo[1,2-a]pyrazine-2,8(1H)-dicarboxamide]	11 to 13	181 to 185 °C	
NC(=O)c1c(-c2ccccc2)c(Cl)n2c1CN(C(=O)NC1CCOCC1)CC2 [Compound 93, 6-chloro-7-phenyl-N^2-(tetrahydro-2H-pyran-4-yl)-3,4-dihydropyrrolo[1,2-a]pyrazine-2,8(1H)-dicarboxamide]	21 to 28	227 to 229 °C	
Cc1cccc(-c2c(C(N)=O)c3n(c2Cl)CCN(C(=O)NC2CCOCC2)C3)c1 [Compound 94, 6-chloro-7-(3-methylphenyl)-N^2-(tetrahydro-2H-pyran-4-yl)-3,4-dihydropyrrolo[1,2-a]pyrazine-2,8(1H)-dicarboxamide]	2 to 18	231 to 234 °C	
N#Cc1cccc(-c2c(C(N)=O)c3n(c2Cl)CCN(C(=O)NC2CCOCC2)C3)c1 [Compound 95, 6-chloro-7-(3-cyanophenyl)-N^2-(tetrahydro-2H-pyran-4-yl)-3,4-dihydropyrrolo[1,2-a]pyrazine-2,8(1H)-dicarboxamide]	6	236 to 238 °C	

More lines, main results first:

IC50 [1] [nM]	melting point	SMILES	CE Delta (t + 1 h) [2] [nM]
19	220 to 222 °C	NC(=O)c1c(-c2cccc(C(F)(F)F)c2)c(Cl)n2c1CN(C(=O)NC1CCOCC1)CC2 [Compound 96, 6-chloro-N^2-(tetrahydro-2H-pyran-4-yl)-7-[3-(trifluoromethyl)phenyl]-3,4-dihydropyrrolo[1,2-a]pyrazine-2,8(1H)-dicarboxamide]	
122	203 to 205 °C	NC(=O)c1c(-c2cccc(OC(F)(F)F)c2)c(Cl)n2c1CN(C(=O)NC1CCOCC1)CC2 [Compound 97, 6-chloro-N^2-(tetrahydro-2H-pyran-4-yl)-7-[3-(trifluoromethoxy)phenyl]-3,4-dihydropyrrolo[1,2-a]pyrazine-2,8(1H)-dicarboxamide]	
2 to 16	223 to 225 °C	NC(=O)c1c(-c2cccc(F)c2)c(Cl)n2c1CN(C(=O)NC1CCOCC1)CC2 [Compound 98, 6-chloro-7-(3-fluorophenyl)-N^2-(tetrahydro-2H-pyran-4-yl)-3,4-dihydropyrrolo[1,2-a]pyrazine-2,8(1H)-dicarboxamide]	
4	141 to 143 °C	CC1(C)CC(NC(=O)N2CCn3c(Cl)c(-c4cccc(F)c4)c(C(N)=O)c3C2)CCO1 (stereo not drawn) [Compound 99, 6-chloro-7-(3-fluorophenyl)-N^2-(2,2-dimethyl-tetrahydro-2H-pyran-4-yl)-3,4-dihydropyrrolo[1,2-a]pyrazine-2,8(1H)-dicarboxamide]	
< 1	184 to 189 °C	CC(C)(C)NC(=O)N1CCn2c(Br)c(-c3cccc(F)c3)c(C(N)=O)c2C1 [Compound 104, 6-bromo-7-(3-fluorophenyl)-N^2-tert-butyl-3,4-dihydropyrrolo[1,2-a]pyrazine-2,8(1H)-dicarboxamide]	
1	> 217 °C	CC(C)(C)NC(=O)N1CCn2c(C#N)c(-c3cccc(F)c3)c(C(N)=O)c2C1 [Compound 105, 6-cyano-7-(3-fluorophenyl)-N^2-(tert-butyl)-3,4-dihydropyrrolo[1,2-a]pyrazine-2,8(1H)-dicarboxamide]	
2	176 to 178 °C	C[C@H](NC(=O)N1CCn2c(C#N)c(-c3cccc(F)c3)c(C(N)=O)c2C1)C(F)(F)F [Compound 106, 6-cyano-7-(3-fluorophenyl)-N^2-((2S)-1,1,1-trifluoropropan-2-yl)-3,4-dihydropyrrolo[1,2-a]pyrazine-2,8(1H)-dicarboxamide]	
< 1	202 to 204 °C	CC(C)(NC(=O)N1CCn2c(C#N)c(-c3cccc(F)c3)c(C(N)=O)c2C1)C(F)(F)F [Compound 107, 6-cyano-7-(3-fluorophenyl)-N^2-(1,1,1-trifluoro-2-methylpropan-2-yl)-3,4-dihydropyrrolo[1,2-a]pyrazine-2,8(1H)-dicarboxamide]	
4	169 to 171 °C	N#Cc1c(-c2cccc(F)c2)c(C(N)=O)c2n1CCN(C(=O)NCCCC(F)(F)F)C2 [Compound 108, 6-cyano-7-(3-fluorophenyl)-N^2-(4,4,4-trifluoro-butyl)-3,4-dihydropyrrolo[1,2-a]pyrazine-2,8(1H)-dicarboxamide]	
9	232 to 234 °C	N#Cc1c(-c2cccc(F)c2)c(C(N)=O)c2n1CCN(C(=O)NC1CCOCC1)C2 [Compound 109, 6-cyano-7-(3-fluorophenyl)-N^2-(tetrahydro-2H-pyran-4-yl)-3,4-dihydropyrrolo[1,2-a]pyrazine-2,8(1H)-dicarboxamide]	
< 1	237 to 240 °C	N#Cc1c(-c2cccc(F)c2)c(C(N)=O)c2n1CCN(C(=O)NC1CCC(F)(F)CC1)C2 [Compound 110, 6-cyano-N^2-(4,4-difluoro-cyclohexyl)-7-(3-fluorophenyl)-3,4-dihydropyrrolo[1,2-a]pyrazine-2,8(1H)-dicarboxamide]	
